# Reference: paper PMC5218480 (PLoS ONE, 2017)
# System: MV-4-11 cells
# Assay: Gene expression microarray analysis (Affymetrix PrimeView) and GSEA
# Type: cell-based, human
# Design: RFU PODN (11730768_x_at) / Fold change /veh PODN (11730768_x_at) / RFU LINC00158 (11744669_a_at) / Fold change /veh LINC00158 (11744669_a_at) / RFU DUSP10 (11751237_a_at) / Fold change /veh DUSP10 (11751237_a_at) / RFU ID3 (11757404_x_at) / Fold change /veh ID3 (11757404_x_at) / RFU PLEKHG5 (11737974_s_at) / Fold change /veh PLEKHG5 (11737974_s_at) / RFU LRRC4B (11730491_at) / Fold change /veh LRRC4B (11730491_at) / RFU GIMAP4 (11747438_a_at) / Fold change /veh GIMAP4 (11747438_a_at) / RFU KRT8 (11758183_x_at) / Fold change /veh KRT8 (11758183_x_at) / RFU CNN1 (11734310_a_at) / Fold change /veh CNN1 (11734310_a_at) / RFU VPS37D (11726825_at) / Fold change /veh VPS37D (11726825_at) / RFU C10orf10 (11716522_x_at) / Fold change /veh C10orf10 (11716522_x_at) / RFU KIR2DL2 /// KIR2DL4 /// KIR2DL5A /// KIR2DL5B /// KIR2DS1 /// KIR2DS2 /// KIR2DS3 /// KIR2DS4 /// KIR3DL3 /// KIR3DL3 /// KIR3DS1 (11738374_at) / Fold change /veh KIR2DL2 /// KIR2DL4 /// KIR2DL5A /// KIR2DL5B /// KIR2DS1 /// KIR2DS2 /// KIR2DS3 /// KIR2DS4 /// KIR3DL3 /// KIR3DL3 /// KIR3DS1 (11738374_at) / RFU C1QL1 (11718748_at) / Fold change /veh C1QL1 (11718748_at) / RFU TMPRSS4 (11747572_a_at) / Fold change /veh TMPRSS4 (11747572_a_at) / RFU HAMP (11756126_x_at) / Fold change /veh HAMP (11756126_x_at) / RFU RNFT2 (11725882_a_at) / Fold change /veh RNFT2 (11725882_a_at) / RFU NR4A2 (11747474_a_at) / Fold change /veh NR4A2 (11747474_a_at) / RFU ABCC12 (11746883_a_at) / Fold change /veh ABCC12 (11746883_a_at) / RFU TMEM136 (11760407_x_at) / Fold change /veh TMEM136 (11760407_x_at) / RFU CLDN22 /// WWC2 (11732394_at) / Fold change /veh CLDN22 /// WWC2 (11732394_at) / RFU HLA-DPB1 (11760878_x_at) / Fold change /veh HLA-DPB1 (11760878_x_at) / RFU SPINT1 (11716480_a_at) / Fold change /veh SPINT1 (11716480_a_at) / RFU GAP43 (11754022_s_at) / Fold change /veh GAP43 (11754022_s_at) / RFU A4GNT (11735810_at) / Fold change /veh A4GNT (11735810_at) / RFU PRB3 (11715151_x_at) / Fold change /veh PRB3 (11715151_x_at) / RFU TUBB4B (11761932_at) / Fold change /veh TUBB4B (11761932_at) / RFU CAPN14 (11732068_a_at) / Fold change /veh CAPN14 (11732068_a_at) / RFU TMCC2 (11721928_a_at) / Fold change /veh TMCC2 (11721928_a_at) / RFU IRGQ (11745062_a_at) / Fold change /veh IRGQ (11745062_a_at) / RFU FAM174B (11720279_a_at) / Fold change /veh FAM174B (11720279_a_at) / RFU TMPRSS4 (11748680_a_at) / Fold change /veh TMPRSS4 (11748680_a_at) / RFU FAM212B (11763350_a_at) / Fold change /veh FAM212B (11763350_a_at) / RFU PLEKHG5 (11743358_a_at) / Fold change /veh PLEKHG5 (11743358_a_at) / RFU ZSCAN30 (11745921_a_at) / Fold change /veh ZSCAN30 (11745921_a_at) / RFU CMKLR1 (11741424_a_at) / Fold change /veh CMKLR1 (11741424_a_at) / RFU LOC101060620 /// MAPK8IP1 (11723275_at) / Fold change /veh LOC101060620 /// MAPK8IP1 (11723275_at) / RFU SPTSSB (11747773_x_at) / Fold change /veh SPTSSB (11747773_x_at) / RFU PRSS12 (11739890_at) / Fold change /veh PRSS12 (11739890_at) / RFU BIN1 (11741810_x_at) / Fold change /veh BIN1 (11741810_x_at) / RFU WNT11 (11732464_a_at) / Fold change /veh WNT11 (11732464_a_at) / RFU C10orf10 (11716521_a_at) / Fold change /veh C10orf10 (11716521_a_at) / RFU C5orf56 (11738089_at) / Fold change /veh C5orf56 (11738089_at) / RFU CYB561 (11721691_x_at) / Fold change /veh CYB561 (11721691_x_at) / RFU ANKRD19P (11752326_a_at) / Fold change /veh ANKRD19P (11752326_a_at) / RFU OR2T12 /// OR2T33 /// OR2T8 (11738714_s_at) / Fold change /veh OR2T12 /// OR2T33 /// OR2T8 (11738714_s_at) / RFU VCAN (11748164_a_at) / Fold change /veh VCAN (11748164_a_at) / RFU JSRP1 (11732532_at) / Fold change /veh JSRP1 (11732532_at) / RFU KRTAP10-11 (11738290_x_at) / Fold change /veh KRTAP10-11 (11738290_x_at) / RFU MYO3A (11730013_a_at) / Fold change /veh MYO3A (11730013_a_at) / RFU EBF3 (11725865_a_at) / Fold change /veh EBF3 (11725865_a_at) / RFU CAMK2N1 (11719241_x_at) / Fold change /veh CAMK2N1 (11719241_x_at) / RFU C5orf56 (11738088_a_at) / Fold change /veh C5orf56 (11738088_a_at) / RFU OLFML3 (11715873_a_at) / Fold change /veh OLFML3 (11715873_a_at) / RFU LOC100653217 /// NTM (11731650_a_at) / Fold change /veh LOC100653217 /// NTM (11731650_a_at) / RFU MAPK11 (11762145_a_at) / Fold change /veh MAPK11 (11762145_a_at) / RFU FIZ1 (11724087_x_at) / Fold change /veh FIZ1 (11724087_x_at) / RFU OASL (11726364_x_at) / Fold change /veh OASL (11726364_x_at) / RFU SOX15 (11748057_x_at) / Fold change /veh SOX15 (11748057_x_at) / RFU CD79A (11719716_a_at) / Fold change /veh CD79A (11719716_a_at) / RFU HIST1H1D (11736915_at) / Fold change /veh HIST1H1D (11736915_at) / RFU CASKIN2 (11723855_a_at) / Fold change /veh CASKIN2 (11723855_a_at) / RFU LOC730098 (11760151_x_at) / Fold change /veh LOC730098 (11760151_x_at) / RFU OR4N2 (11742367_at) / Fold change /veh OR4N2 (11742367_at) / RFU PRRT2 (11749266_a_at) / Fold change /veh PRRT2 (11749266_a_at) / RFU SNX32 (11753110_a_at) / Fold change /veh SNX32 (11753110_a_at) / RFU CDHR5 (11726645_a_at) / Fold change /veh CDHR5 (11726645_a_at) / RFU RCAN1 (11760418_a_at) / Fold change /veh RCAN1 (11760418_a_at) / RFU FAM167A (11723789_a_at) / Fold change /veh FAM167A (11723789_a_at) / RFU FAM26E (11764081_at) / Fold change /veh FAM26E (11764081_at) / RFU ISYNA1 (11749810_s_at) / Fold change /veh ISYNA1 (11749810_s_at) / RFU ACY1 (11761880_at) / Fold change /veh ACY1 (11761880_at) / RFU 11764098_at / Fold change /veh 11764098_at / RFU SAMD14 (11745864_x_at) / Fold change /veh SAMD14 (11745864_x_at) / RFU NPB (11741838_a_at) / Fold change /veh NPB (11741838_a_at) / RFU TMPRSS6 (11731388_a_at) / Fold change /veh TMPRSS6 (11731388_a_at) / RFU KRTAP10-2 (11738614_at) / Fold change /veh KRTAP10-2 (11738614_at) / RFU ARHGAP8 /// PRR5-ARHGAP8 (11727945_x_at) / Fold change /veh ARHGAP8 /// PRR5-ARHGAP8 (11727945_x_at) / RFU KRTAP5-7 /// NADSYN1 (11734609_at) / Fold change /veh KRTAP5-7 /// NADSYN1 (11734609_at) / RFU RASL12 (11751679_a_at) / Fold change /veh RASL12 (11751679_a_at) / RFU CDKN2B (11736163_a_at) / Fold change /veh CDKN2B (11736163_a_at) / RFU PRF1 (11729649_at) / Fold change /veh PRF1 (11729649_at) / RFU, ZNF638 /// ZNF638-IT1 / Fold change vs veh, ZNF638 /// ZNF638-IT1 / RFU, PANK3 / Fold change vs veh, PANK3 / RFU, SH3YL1 / Fold change vs veh, SH3YL1 / RFU, ZEB2 / Fold change vs veh, ZEB2 / RFU, NRIP1 / Fold change vs veh, NRIP1 / RFU, PTTG1IP / Fold change vs veh, PTTG1IP / RFU, CAPN2 / Fold change vs veh, CAPN2 / RFU, MED14 / Fold change vs veh, MED14 / RFU, SNORA58 / Fold change vs veh, SNORA58 / RFU, C1orf63 / Fold change vs veh, C1orf63 / RFU, LRRFIP1 / Fold change vs veh, LRRFIP1 / RFU, NDUFAF7 / Fold change vs veh, NDUFAF7 / RFU, SLC12A2 / Fold change vs veh, SLC12A2 / RFU, IBTK / Fold change vs veh, IBTK / RFU, ESF1 / Fold change vs veh, ESF1 / Fold change vs veh, TMEM50B / RFU, TAOK1 / Fold change vs veh, TAOK1 / RFU, ACBD3 / Fold change vs veh, ACBD3 / RFU, TMA16 / Fold change vs veh, TMA16 / RFU, RWDD3 / Fold change vs veh, RWDD3 / RFU, BCAT1 / Fold change vs veh, BCAT1 / RFU, EDEM3 / Fold change vs veh, EDEM3 / RFU, TMEM33 / Fold change vs veh, TMEM33 / RFU, WDR75 / Fold change vs veh, WDR75 / RFU, AHCTF1 / Fold change vs veh, AHCTF1 / RFU, TFRC / Fold change vs veh, TFRC / RFU, ZDHHC17 / Fold change vs veh, ZDHHC17 / RFU, NOM1 / Fold change vs veh, NOM1 / RFU, ARL8B / Fold change vs veh, ARL8B / RFU, ZBTB11 / Fold change vs veh, ZBTB11 / RFU, TAMM41 / Fold change vs veh, TAMM41 / RFU, KIAA1704 /// LOC100996395 / Fold change vs veh, KIAA1704 /// LOC100996395 / RFU, ING1 / Fold change vs veh, ING1 / RFU, TRMT61B / Fold change vs veh, TRMT61B / RFU, FUBP3 / Fold change vs veh, FUBP3 / RFU, TP53 / Fold change vs veh, TP53 / RFU, TNKS2 / Fold change vs veh, TNKS2 / RFU, ZFP14 / Fold change vs veh, ZFP14 / RFU, ACTR2 / Fold change vs veh, ACTR2 / RFU, PPP3R1 / Fold change vs veh, PPP3R1 / RFU, PIK3R1 / Fold change vs veh, PIK3R1 / RFU, HNRNPA1 / Fold change vs veh, HNRNPA1 / RFU, RNF170 / Fold change vs veh, RNF170 / RFU, ZNF28 / Fold change vs veh, ZNF28 / RFU, RNGTT / Fold change vs veh, RNGTT / RFU, OGT / Fold change vs veh, OGT / RFU, BRD1 / Fold change vs veh, BRD1 / RFU, MARS / Fold change vs veh, MARS / RFU, ZNF655 / Fold change vs veh, ZNF655 / RFU, FAHD1 / Fold change vs veh, FAHD1 / RFU, BDP1 / Fold change vs veh, BDP1 / RFU, LRRCC1 / Fold change vs veh, LRRCC1 / RFU, ARID1A / Fold change vs veh, ARID1A / RFU, ZNF146 / Fold change vs veh, ZNF146 / RFU, ZNF330 / Fold change vs veh, ZNF330 / RFU, GPN3 / Fold change vs veh, GPN3 / RFU, C9orf123 / Fold change vs veh, C9orf123 / RFU, N4BP2L2 / Fold change vs veh, N4BP2L2 / RFU, ARFIP1 / Fold change vs veh, ARFIP1 / RFU, FAM179B / Fold change vs veh, FAM179B / RFU, BCL10 / Fold change vs veh, BCL10 / RFU, UHRF1BP1L / Fold change vs veh, UHRF1BP1L / RFU, BET1 / Fold change vs veh, BET1 / RFU, CNOT2 / Fold change vs veh, CNOT2 / RFU, ZNF268 / Fold change vs veh, ZNF268 / Fold change vs veh, ZNF507 / RFU, DGCR2 / Fold change vs veh, DGCR2 / RFU, WDSUB1 / Fold change vs veh, WDSUB1 / Fold change vs veh, HSP90B1 /// MIR3652 / RFU, ADSS / Fold change vs veh, ADSS / RFU, GK / Fold change vs veh, GK / RFU, ZNF148 / Fold change vs veh, ZNF148 / RFU, TAF9 / Fold change vs veh, TAF9 / RFU, SLC1A5 / Fold change vs veh, SLC1A5 / RFU, SLMO2 / Fold change vs veh, SLMO2 / RFU, ABCC4 / Fold change vs veh, ABCC4 / RFU, LOC101060439 /// RAP1B / Fold change vs veh, LOC101060439 /// RAP1B / RFU, RFX7 / Fold change vs veh, RFX7 / RFU, GTPBP10 / Fold change vs veh, GTPBP10 / RFU, CNEP1R1 / Fold change vs veh, CNEP1R1 / RFU, BIVM-ERCC5 /// ERCC5 / Fold change vs veh, BIVM-ERCC5 /// ERCC5 / RFU, ILF3 / Fold change vs veh, ILF3 / RFU 11762660_at / Fold change /veh 11762660_at / RFU VCAN (11757783_s_at) / Fold change /veh VCAN (11757783_s_at) / RFU DDX43 (11728927_at) / Fold change /veh DDX43 (11728927_at) / RFU KRT8 (11758188_x_at) / Fold change /veh KRT8 (11758188_x_at) / RFU NKD1 (11759106_at) / Fold change /veh NKD1 (11759106_at) / RFU SRD5A1 (11742802_a_at) / Fold change /veh SRD5A1 (11742802_a_at) / RFU TPSAB1 /// TPSB2 (11721975_s_at) / Fold change /veh TPSAB1 /// TPSB2 (11721975_s_at) / RFU GSTM3 (11746129_a_at) / Fold change /veh GSTM3 (11746129_a_at) / RFU IL23R (11737362_x_at) / Fold change /veh IL23R (11737362_x_at) / RFU TMEM51 (11727254_a_at) / Fold change /veh TMEM51 (11727254_a_at) / RFU PIWIL2 (11732686_x_at) / Fold change /veh PIWIL2 (11732686_x_at) / RFU ORM1 (11744905_x_at) / Fold change /veh ORM1 (11744905_x_at) / RFU CCDC152 (11743942_at) / Fold change /veh CCDC152 (11743942_at) / RFU ECM1 (11717891_a_at) / Fold change /veh ECM1 (11717891_a_at) / RFU IL23R (11748794_a_at) / Fold change /veh IL23R (11748794_a_at) / RFU TNFAIP8L3 (11732012_x_at) / Fold change /veh TNFAIP8L3 (11732012_x_at) / RFU MBOAT4 (11741988_at) / Fold change /veh MBOAT4 (11741988_at) / RFU 11764193_at / Fold change /veh 11764193_at / RFU TMEM53 (11763286_at) / Fold change /veh TMEM53 (11763286_at) / RFU MAGEB2 (11727129_at) / Fold change /veh MAGEB2 (11727129_at) / RFU TMEM200A (11744735_a_at) / Fold change /veh TMEM200A (11744735_a_at) / RFU CCDC152 (11751479_a_at) / Fold change /veh CCDC152 (11751479_a_at) / RFU FAM211A (11726209_a_at) / Fold change /veh FAM211A (11726209_a_at) / RFU RGS16 (11746705_a_at) / Fold change /veh RGS16 (11746705_a_at) / RFU VCAN (11755009_s_at) / Fold change /veh VCAN (11755009_s_at) / RFU RHOB (11743442_s_at) / Fold change /veh RHOB (11743442_s_at) / RFU RGS16 (11720943_a_at) / Fold change /veh RGS16 (11720943_a_at) / RFU RGS16 (11720944_at) / Fold change /veh RGS16 (11720944_at) / RFU, VPS4B / Fold change vs veh, VPS4B / RFU, CREB1 / Fold change vs veh, CREB1 / RFU, DNAJC13 / Fold change vs veh, DNAJC13 / RFU, GNAQ / Fold change vs veh, GNAQ / RFU, CDK5R1 / Fold change vs veh, CDK5R1 / RFU, ZRANB3 / Fold change vs veh, ZRANB3 / RFU, CUL4A / Fold change vs veh, CUL4A / RFU, CCNY / Fold change vs veh, CCNY / RFU, UFL1 / Fold change vs veh, UFL1 / RFU, COG3 / Fold change vs veh, COG3 / RFU, DIAPH2 / Fold change vs veh, DIAPH2 / RFU, SKA2 / Fold change vs veh, SKA2 / RFU, AFF3 / Fold change vs veh, AFF3 / RFU, LMF1 / Fold change vs veh, LMF1 / RFU, IPO11 / Fold change vs veh, IPO11 / RFU, DFFB / Fold change vs veh, DFFB / RFU, FOXP1 / Fold change vs veh, FOXP1 / RFU, CARD8 / Fold change vs veh, CARD8 / RFU, STRN3 / Fold change vs veh, STRN3 / RFU, ADK / Fold change vs veh, ADK / RFU, RASSF2 / Fold change vs veh, RASSF2 / RFU, WIPF1 / Fold change vs veh, WIPF1 / RFU, LARP1B / Fold change vs veh, LARP1B / RFU, RASA1 / Fold change vs veh, RASA1 / RFU, RB1 / Fold change vs veh, RB1 / RFU, PPFIA1 / Fold change vs veh, PPFIA1 / RFU, MAT2A / Fold change vs veh, MAT2A / RFU, CCT5 / Fold change vs veh, CCT5 / RFU, WDR92 / Fold change vs veh, WDR92 / RFU, CUX1 / Fold change vs veh, CUX1 / RFU, TTC7A / Fold change vs veh, TTC7A / RFU, TMEM135 / Fold change vs veh, TMEM135 / RFU, DEPTOR / Fold change vs veh, DEPTOR / RFU, CPM / Fold change vs veh, CPM / RFU, DNAJB6 / Fold change vs veh, DNAJB6 / RFU, CACNA2D3 / Fold change vs veh, CACNA2D3 / RFU, DTX4 / Fold change vs veh, DTX4 / RFU, TFCP2 / Fold change vs veh, TFCP2 / RFU, GMCL1 /// GMCL1P1 / Fold change vs veh, GMCL1 /// GMCL1P1 / RFU, AEBP2 / Fold change vs veh, AEBP2 / RFU, SNHG1 /// SNORD22 /// SNORD25 /// SNORD26 /// SNORD27 /// SNORD28 /// SNORD29 /// SNORD31 / Fold change vs veh, SNHG1 /// SNORD22 /// SNORD25 /// SNORD26 /// SNORD27 /// SNORD28 /// SNORD29 /// SNORD31 / Fold change (Aza/veh), C12orf56 (ProbeSet 11735607_a_at) / Fold change (ACY-1035/veh), C12orf56 (ProbeSet 11735607_a_at) / Fold change (Aza/veh), FGFR1OP (ProbeSet 11751329_s_at) / Fold change (ACY-1035/veh), FGFR1OP (ProbeSet 11751329_s_at) / Fold change (Aza/veh), VPS36 (ProbeSet 11739960_a_at) / Fold change (ACY-1035/veh), VPS36 (ProbeSet 11739960_a_at) / RFU SYPL1 (11715823_x_at) / Fold change /veh SYPL1 (11715823_x_at) / RFU IGFBP7 (11715501_s_at) / Fold change /veh IGFBP7 (11715501_s_at) / RFU REEP3 (11722064_at) / Fold change /veh REEP3 (11722064_at) / RFU IGLL1 (11728026_x_at) / Fold change /veh IGLL1 (11728026_x_at): dose or concentration left out as unconfirmed
# Details: ProbeSet 11722022_s_at; LIST D
smiles,measurement,value
Nc1ncn([C@@H]2O[C@H](CO)[C@@H](O)[C@H]2O)c(=O)n1 [azacitidine],"RFU, CDK5R1",40.46 RFU
